The structures appear in SMILES notation.

These results are taken from patent US8003604B2, “Hepatitis C virus inhibitors” (priority 2006, dated 2011).

Test [1] has as its system HCV replicon in HUH-7 cells. In words: HCV replicon FRET assay (confirmed in replicon luciferase reporter assay). It is filed as cell-based. The following applies: Hepatitis C virus, 96 h; HUH-7 cells constitutively expressing HCV 1b replicon, 4 days incubation. The text has this:
An HCV replicon whole cell system was established as described by Lohmann V, Korner F, Koch J, Herian U, Theilmann L, Bartenschlager R., Science 285(5424):110-3 (1999). This system enabled us to evaluate the effects of our HCV Protease compounds on HCV RNA replication. Briefly, using the HCV strain 1b sequence described in the Lohmann paper (Accession number: AJ238799), an HCV cDNA was synthesized by Operon Technologies, Inc. (Alameda, Calif.), and the full-length replicon was then assembled in plasmid pGem9zf(+) (Promega, Madison, Wis.) using standard molecular biology techniques. […]
The HCV replicon FRET assay was developed to monitor the inhibitory effects of compounds described in the disclosure on HCV viral replication. […] After 4 days, cells were first assessed for cytotoxicity using alamar Blue (Trek Diagnotstic Systems) for a CC50 reading. The toxicity of compound (CC50) was determined by adding 1/10th volume of alamar Blue to the media incubating the cells. After 4 h, the fluorescence signal from each well was read, with an excitation wavelength at 530 nm and an emission wavelength of 580 nm, using the Cytofluor Series 4000 (Perspective Biosystems). […]
(In general: In antiviral work, replicon cells carry a viral genome segment that copies itself.)

In test [2] the target is T1, HCV NS3/4A protease complex (Hepatitis C virus genotype 1a, UniProt P27958, C1454S/C1711G).
T1 construct: DNA encoding the recombinant HCV NS3/4A protease complex (amino acids 1027 to 1711) for these strains were manipulated; inferred from pET21b vector and Ni-NTA purification; made in house; host or cells: Escherichia coli BL21 (DE3), pET21b vector
T1 sequence (P27958 1027-1711 C1454S/C1711G, one chain of several): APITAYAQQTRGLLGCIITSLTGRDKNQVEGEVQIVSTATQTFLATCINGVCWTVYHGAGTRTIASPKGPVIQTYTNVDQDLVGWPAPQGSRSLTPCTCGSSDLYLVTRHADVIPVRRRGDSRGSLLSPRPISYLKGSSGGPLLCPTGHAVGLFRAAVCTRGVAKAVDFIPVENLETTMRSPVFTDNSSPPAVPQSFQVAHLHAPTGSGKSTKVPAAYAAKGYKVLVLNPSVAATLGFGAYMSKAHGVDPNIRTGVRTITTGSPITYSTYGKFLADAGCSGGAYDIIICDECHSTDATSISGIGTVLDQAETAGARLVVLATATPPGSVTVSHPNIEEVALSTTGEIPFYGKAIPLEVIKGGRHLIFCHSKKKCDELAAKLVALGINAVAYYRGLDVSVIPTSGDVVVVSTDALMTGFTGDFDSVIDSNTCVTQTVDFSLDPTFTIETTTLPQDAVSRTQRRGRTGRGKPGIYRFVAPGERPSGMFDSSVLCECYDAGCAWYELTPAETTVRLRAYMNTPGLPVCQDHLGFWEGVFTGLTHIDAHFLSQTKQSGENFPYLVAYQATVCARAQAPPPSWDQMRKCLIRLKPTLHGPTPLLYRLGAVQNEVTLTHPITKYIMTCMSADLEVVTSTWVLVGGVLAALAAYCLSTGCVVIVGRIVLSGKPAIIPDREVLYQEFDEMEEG
Nature of the test: FRET peptide assay to monitor HCV NS3/4A proteolytic activity. It is filed as biochemical. The source says: HCV NS3 protease complexes, derived from the BMS strain, H77 strain or J4L6S strain, were generated, as described below. These purified recombinant proteins were generated for use in a homogeneous assay (see below) to provide an indication of how effective compounds of the present disclosure would be in inhibiting HCV NS3 proteolytic activity.
Serum from an HCV-infected patient was obtained from Dr. T. Wright, San Francisco Hospital. An engineered full-length cDNA (compliment deoxyribonucleic acid) template of the HCV genome (BMS strain) was constructed from DNA fragments obtained by reverse transcription-PCR (RT-PCR) of serum RNA (ribonucleic acid) and using primers selected on the basis of homology between other genotype 1a strains. From the determination of the entire genome sequence, a genotype 1a was assigned to the HCV isolate according to the classification of Simmonds et al. (See P Simmonds, K A Rose, S Graham, S W Chan, F McOmish, B C Dow, E A Follett, P L Yap and H Marsden, J. Clin. Microbiol., 31(6), 1493-1503 (1993)). […]

In the case of `CC(C)(C)OC(=O)N[C@H]1CCCCC/C=C\C2C[C@@]2(C(=O)NS(=O)(=O)C2CC2)NC(=O)[C@@H]2C[C@@H](c3ccccc3)CN2C1=O` (stereo partly shown) [Compound 1], in test [1], the midpoint of the response, the EC50, lay at 639 nM. Moreover, it took 18 nM to reach half-maximal inhibition in test [2] (IC50).

In test [1], `CC(C)(C)OC(=O)N[C@H]1CCCCC/C=C\[C@@H]2C[C@@]2(C(=O)NS(=O)(=O)C2CC2)NC[C@@H]2C[C@@](O)(c3ccccc3)CN2C1=O` [Compound 2] registered an EC50 of 389 nM. Moreover, the concentration for half-maximal inhibition (IC50) in test [2] amounted to 9 nM.

The EC50 is the midpoint of the concentration-response curve. Low values mean greater potency, high ones weaker potency. As usually defined, the IC50 is the point on the concentration scale where inhibition reaches its midpoint.
